Laboratory results published in PubChem BioAssay (NCI).
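Test compounds were applied to cells in 96-well plates for 48 hours at 5 doses. GI50 is the concentration that inhibits growth by half. The concentration for full growth arrest is given as TGI.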

Key:
Experiment in all cases: NCI tumour cell line growth inhibition, 48 h
[1] = test system: OVCAR-5 ovarian
[2] = test system: SNB-19 CNS
[3] = test system: MALME-3M melanoma
[4] = test system: MOLT-4 leukemia
[5] = test system: K-562 leukemia
[6] = test system: IGROV1 ovarian
[7] = test system: SK-MEL-28 melanoma
[8] = test system: SR leukemia
[9] = test system: SK-OV-3 ovarian
[10] = test system: T-47D breast
[11] = test system: RPMI-8226 leukemia
[12] = test system: HL-60(TB) leukemia
[13] = test system: SK-MEL-2 melanoma
[14] = test system: SK-MEL-5 melanoma
[15] = test system: NCI-H23 lung
[16] = test system: NCI-H522 lung
[17] = test system: HS 578T breast
[18] = test system: HT29 colon
[19] = test system: TK-10 renal
[20] = test system: SF-268 CNS
[21] = test system: MDA-MB-231 breast
[22] = test system: SF-539 CNS
[23] = test system: DU-145 prostate
[24] = test system: 786-0 renal
[25] = test system: UACC-62 melanoma
[26] = test system: NCI/ADR-RES ovarian
[27] = test system: EKVX NSCLC
[28] = test system: SN12C renal
[29] = test system: MDA-MB-435
[30] = test system: PC-3 prostate
[31] = test system: SW-620 colon
[32] = test system: UO-31 renal
[33] = test system: KM12 colon
[34] = test system: MCF7 breast
[35] = test system: NCI-H226 lung
[36] = test system: COLO 205 colon
[37] = test system: HOP-92 NSCLC
[38] = test system: A498 renal
[39] = test system: OVCAR-3 ovarian
[40] = test system: UACC-257 melanoma
[41] = test system: OVCAR-4 ovarian
[42] = test system: OVCAR-8 ovarian
[43] = test system: HCC-2998 colon
[44] = test system: CCRF-CEM leukemia
[45] = test system: A549 NSCLC
[46] = test system: SNB-75 CNS
[47] = test system: U251 CNS
[48] = test system: HCT-116 colon
[49] = test system: HOP-62 NSCLC
[50] = test system: CAKI-1 renal
[51] = test system: HCT-15 colon
[52] = test system: ACHN renal
[53] = test system: M14 melanoma
[54] = test system: NCI-H460 lung
[55] = test system: SF-295 CNS
[56] = test system: BT-549 breast
[57] = test system: LOX IMVI melanoma

C/C(=C(\c1ccc(O)cc1)c1ccc(OCCN2CCCCCC2)cc1)c1ccc(Cl)cc1
GI50 [1]: 5.78 µM
TGI [1]: 11.5 µM
GI50 [2]: 6.27 µM
TGI [2]: 12.3 µM
GI50 [3]: 4.52 µM
TGI [3]: 9.89 µM
GI50 [4]: 1.69 µM
TGI [4]: 7.25 µM
GI50 [5]: 1.32 µM
TGI [5]: 6.03 µM
GI50 [6]: 5.79 µM
TGI [6]: 11.9 µM
GI50 [7]: 4.94 µM
TGI [7]: 10.4 µM
GI50 [8]: 1.28 µM
TGI [8]: 4.7 µM
GI50 [9]: 7.74 µM
TGI [9]: 15 µM
GI50 [10]: 1.19 µM
TGI [10]: 11.1 µM
GI50 [11]: 1.86 µM
TGI [11]: 31 µM
GI50 [12]: 5.98 µM
TGI [12]: 14.3 µM
GI50 [13]: 7.59 µM
TGI [13]: 14.5 µM
GI50 [14]: 6.48 µM
TGI [14]: 12.5 µM
GI50 [15]: 5.52 µM
TGI [15]: 11.3 µM
GI50 [16]: 7.43 µM
TGI [16]: 15 µM
GI50 [17]: 5.06 µM
TGI [17]: 14.1 µM
GI50 [18]: 1.26 µM
TGI [18]: 4.59 µM
GI50 [19]: 6.99 µM
TGI [19]: 14 µM
GI50 [20]: 5.8 µM
TGI [20]: 12.7 µM
GI50 [21]: 7.02 µM
TGI [21]: 13.3 µM
GI50 [22]: 4.67 µM
TGI [22]: 10 µM
GI50 [23]: 7.05 µM
TGI [23]: 13.2 µM
GI50 [24]: 2.15 µM
TGI [24]: 8.4 µM
GI50 [25]: 6.35 µM
TGI [25]: 12.4 µM
GI50 [26]: 5.57 µM
TGI [26]: 11.5 µM
GI50 [27]: 6.67 µM
TGI [27]: 12.8 µM
GI50 [28]: 5.86 µM
TGI [28]: 11.9 µM
GI50 [29]: 5.36 µM
TGI [29]: 11.1 µM
GI50 [30]: 2.8 µM
TGI [30]: 11.1 µM
GI50 [31]: 3.17 µM
TGI [31]: 9.28 µM
GI50 [32]: 4.53 µM
TGI [32]: 9.88 µM
GI50 [33]: 3.37 µM
TGI [33]: 9.28 µM
GI50 [34]: 0.0385 µM
TGI [34]: 3.81 µM
GI50 [35]: 5.39 µM
TGI [35]: 12.2 µM
GI50 [36]: 1.21 µM
TGI [36]: 2.99 µM
GI50 [37]: 2.07 µM
TGI [37]: 9.62 µM
GI50 [38]: 8.32 µM
TGI [38]: 14.9 µM
GI50 [39]: 6.11 µM
TGI [39]: 12.1 µM
GI50 [40]: 7.39 µM
TGI [40]: 14.8 µM
GI50 [41]: 4.83 µM
TGI [41]: 10.6 µM
GI50 [42]: 6.94 µM
TGI [42]: 13.7 µM
GI50 [43]: 2.43 µM
TGI [43]: 8.05 µM
GI50 [44]: 10.8 µM
TGI [44]: 45.8 µM
GI50 [45]: 6.27 µM
TGI [45]: 18.4 µM
GI50 [46]: 6.02 µM
TGI [46]: 12 µM
GI50 [47]: 3.28 µM
TGI [47]: 13.4 µM
GI50 [48]: 2.21 µM
TGI [48]: 9.11 µM
GI50 [49]: 7.03 µM
TGI [49]: 15.7 µM
GI50 [50]: 5.39 µM
TGI [50]: 11 µM
GI50 [51]: 1.26 µM
TGI [51]: 3.95 µM
GI50 [52]: 5.26 µM
TGI [52]: 10.8 µM
GI50 [53]: 1.6 µM
TGI [53]: 6.17 µM
GI50 [54]: 2.2 µM
TGI [54]: 7.27 µM
GI50 [55]: 4.79 µM
TGI [55]: 10.3 µM
GI50 [56]: 6.12 µM
TGI [56]: 13 µM
GI50 [57]: 1.66 µM
TGI [57]: 6.55 µM
